Measurements: article PMC6711809 (Bioorganic & medicinal chemistry letters, 2019)

Molecular target: HIV-1 protease (Human immunodeficiency virus type 1 group M subtype B, UniProt P04585)
Assay: HIV-1 protease inhibitory activity
Assay type: biochemical
Conditions: for fold better inhibitory activity than 3i: compared with 3i

Q: How did the “loss of protease inhibitory activity relative to 3a” value (compared with 3a) turn out when COCCOc1c(N[C@@H](Cc2ccccc2)[C@H](O)CN(CC(C)C)S(=O)(=O)c2ccc(OC)cc2)c(=O)c1=O [Inhibitor 3b] was run?
A: The value was “over 4 fold”.

Q: How did the “potency enhancement over compound 3e” value (compared with 3e) turn out when COc1ccc(S(=O)(=O)N(CC(C)C)C[C@@H](O)[C@H](Cc2ccccc2)Nc2c(N(C)[C@H]3CCOC3)c(=O)c2=O)cc1 [Inhibitor 3g] was run?
A: Its value is 15 fold.

Q: COc1ccc(S(=O)(=O)N(CC(C)C)C[C@@H](O)[C@H](Cc2ccccc2)Nc2c(N(C)[C@@H]3CCOC3)c(=O)c2=O)cc1 [Inhibitor 3h] was tested. Which “fold more potent than 3g” value (compared with 3g) did it give?
A: The value was “over 775 fold”.

Q: For COc1ccc(S(=O)(=O)N(CC(C)C)C[C@@H](O)[C@H](Cc2ccccc2)Nc2c(N[C@@H]3CO[C@@H]4OCC[C@@H]43)c(=O)c2=O)cc1 [Inhibitor 3j], which “fold better inhibitory activity than 3i” value is on record?
A: The value was roughly 10 fold.

Q: With COc1ccc(S(=O)(=O)N(CC(C)C)C[C@@H](O)[C@H](Cc2ccccc2)Nc2c(N(C)[C@H]3CO[C@H]4OCC[C@H]43)c(=O)c2=O)cc1 [Inhibitor 3k] as the compound, how does the “fold better inhibitory activity than 3i” value read?
A: Its value is “over 10 fold”.
